From ChEMBL document CHEMBL1201862, “PubChem BioAssay data set” (2004) come the findings set out here.

Among the test systems are DLD-1; DMS-114; DMS-273; HOP-18; LXFL 529; M19-MEL; RXF 631; SNB-78; XF498.
Holding throughout (experiment): NCI tumour cell line growth inhibition, 48 h

SMILES strings stand for the structures.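 Protocol summary: plate cells (96-well), add compound at 5 concentrations, incubate 48 h, interpolate endpoints linearly. GI50 = concentration required for 50% inhibition of growth.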 Activity calls are given as the source filed them. Rule as the data show it: active = GI50 up to about 1.1 µM and inactive = higher.

For `O=C1C(Cl)=C(Cl)C(=O)N1c1ccc(F)cc1` [FLUOROIMIDE], the GI50 was 18.2 µM (inactive) with DLD-1; 19.7 µM (inactive) in the test with DMS-114; 25.8 µM (inactive) with DMS-273; 21.1 µM (inactive) with HOP-18; 15.9 µM (inactive) in the test with LXFL 529; 19.5 µM (inactive) in the test on M19-MEL. The GI50 in the test on RXF 631 was 28.9 µM (inactive); in the test on SNB-78, 27 µM (inactive); in the test on XF498, 19.9 µM (inactive).
Consider `C=CCc1cc(OC)c2c(c1)C(O)CC(c1ccc(OC)c(OC)c1)O2` (stereo not given), for which the GI50 in the test with DLD-1 is > 100 µM (inactive); in the test on DMS-114, 59.8 µM (inactive); with DMS-273, > 100 µM (inactive); in the test on HOP-18, > 100 µM (inactive); with LXFL 529 it was > 100 µM (inactive); in the test on M19-MEL, > 100 µM (inactive). In the test on SNB-78, the GI50 is > 100 µM (inactive).
Turning to `COc1ccc(O)c2c1C(=O)CCCC2=O`, the GI50 in the test with DLD-1, with DMS-114, in the test with DMS-273, in the test on LXFL 529, in the test with M19-MEL and in the test on RXF 631 was > 100 µM (inactive) each time. For the same compound, the GI50 with SNB-78 and in the test with XF498 was > 100 µM (inactive) in each case.
In the case of `O=c1c(Sc2c(O)c3ccccc3c3ccccc3c2=O)c(O)c2ccccc2c2ccccc12`, the GI50 in the test on DLD-1 was 51.3 µM (inactive); with DMS-114, 25.4 µM (inactive); in the test on DMS-273, 25.1 µM (inactive); in the test on HOP-18, 24.2 µM (inactive); in the test with LXFL 529 it was 30 µM (inactive); in the test on M19-MEL, 31.8 µM (inactive). Besides, the GI50 with RXF 631 was 37.2 µM (inactive).
As for `CS(=O)(=O)Sc1ccc(Cl)cc1`, the GI50 in the test on DLD-1 was 13.9 µM (inactive); in the test with DMS-273, 5.15 µM (inactive); in the test on HOP-18, 26.8 µM (inactive); in the test with LXFL 529, 11.3 µM (inactive); with M19-MEL, 6.82 µM (inactive); in the test with RXF 631, 7.38 µM (inactive). In addition, the GI50 in the test on SNB-78 is 0.713 µM (active); in the test with XF498, 10.7 µM (inactive).
In the case of `CN(C)c1nc(Oc2nc(N(C)C)nc(N(C)C)n2)nc(N(C)C)n1`, the GI50 was > 100 µM (inactive) in the test on DLD-1; 51.4 µM (inactive) with DMS-114; 61 µM (inactive) with DMS-273; > 100 µM (inactive) with HOP-18; > 100 µM (inactive) with LXFL 529; 82.4 µM (inactive) in the test with M19-MEL. Moreover, the values for the GI50 in the test on SNB-78 and in the test with XF498 were 61.4 µM (inactive) and 84.7 µM (inactive), respectively.
As for `COc1cc(/C=C/C(=O)c2sc(NNC(C)=O)nc2C)ccc1O`, the GI50 in the test on DLD-1, in the test with DMS-114, with DMS-273, in the test on HOP-18, in the test with RXF 631 and in the test on SNB-78 was > 100 µM (inactive) throughout.
As for `CCCN(CCC)c1c([N+](=O)[O-])cc(C(=O)N(CC)CC)cc1[N+](=O)[O-]`, the GI50 was 17.6 µM (inactive) with DLD-1; 10.9 µM (inactive) with DMS-114; 17.6 µM (inactive) in the test on DMS-273; 19.1 µM (inactive) in the test on LXFL 529; 20.7 µM (inactive) in the test with M19-MEL; 31 µM (inactive) in the test with SNB-78.
Turning to `CC(C)S(=O)(=O)n1c(N)nc2ccc(/C(=N/O)c3ccccc3)cc21` [ENVIROXIME], the GI50 in the test on DLD-1 was 26.2 µM (inactive); with DMS-114, 16.9 µM (inactive); in the test on DMS-273, 31.4 µM (inactive); in the test with LXFL 529 it was 41.4 µM (inactive); with M19-MEL, 34 µM (inactive); in the test with SNB-78 it was 36.4 µM (inactive).
Regarding `C/C(=N\NC(=O)CC#N)c1c(O)cc(C)oc1=O`, the GI50 in the test with DLD-1, in the test with HOP-18, in the test with LXFL 529, with M19-MEL, with RXF 631 and in the test with SNB-78 was > 100 µM (inactive) each time.
Turning to `Clc1ccc(/N=N/c2nc3ccccc3nc2/N=N/c2ccc(Cl)cc2Cl)c(Cl)c1`, the GI50 in the test on DLD-1 is > 100 µM (inactive); in the test with DMS-114 it was > 100 µM (inactive); in the test with LXFL 529 it was 78.5 µM (inactive); in the test with M19-MEL, > 100 µM (inactive); in the test with SNB-78 it was > 100 µM (inactive); with XF498, > 100 µM (inactive).
On to `COc1ccc(C2=NN(C(C)=O)c3nc4ccccc4nc3O2)cc1`, for which the GI50 with DLD-1 is 25.4 µM (inactive); in the test on DMS-114 it was 42.2 µM (inactive); with DMS-273, 42.1 µM (inactive); in the test with HOP-18, 17.7 µM (inactive); with LXFL 529, 31.4 µM (inactive); in the test on M19-MEL, 89.7 µM (inactive). In addition, the GI50 was 23 µM (inactive) with RXF 631 and 19.1 µM (inactive) in the test with XF498.
In the case of `O=C(O)C12C3CCCC1C2CC3` (stereo not given), the GI50 in the test on DLD-1, with DMS-114, with HOP-18, in the test with LXFL 529, with M19-MEL and in the test on RXF 631 was > 100 µM (inactive) each time. Further, the GI50 with SNB-78 and in the test with XF498 was > 100 µM (inactive) each time.
As to `CC(C)NC1CCCCC2c3ccccc3C12O` (stereo not given), the GI50 in the test on DMS-114, in the test with DMS-273, with HOP-18, with LXFL 529, in the test with M19-MEL and with SNB-78 was > 100 µM (inactive) throughout. For the same compound, in the test on XF498, the GI50 is > 100 µM (inactive).
As to `CCCCCCCCCCCc1c(O)c(=O)c2c(oc3c(=O)c(CCCCCCCCCCC)c(O)c(=O)c3n2-c2ccc(N(C)C)cc2)c1=O`, the GI50 with DLD-1 is 18.8 µM (inactive); in the test on DMS-114, 24.8 µM (inactive); in the test with DMS-273 it was 22.8 µM (inactive); in the test on HOP-18, 22.6 µM (inactive); in the test on LXFL 529 it was 21.2 µM (inactive); with SNB-78, 55.2 µM (inactive). In addition, in the test with XF498, the GI50 was 21.5 µM (inactive).
For the compound `CCCCCC#COC1CC(C)CC[C@@H]1C(C)C` (stereo not given in full), the GI50 is 41.3 µM (inactive) in the test with DLD-1; 65 µM (inactive) in the test with DMS-273; > 100 µM (inactive) in the test with HOP-18; 97.9 µM (inactive) with LXFL 529; 48 µM (inactive) in the test on M19-MEL; > 100 µM (inactive) in the test with SNB-78.
On to `CC(O)C1OC(n2ccc(=O)[nH]c2=O)CC1n1cncn1` (stereo not given), for which the GI50 with DLD-1, in the test with DMS-114, in the test on DMS-273, in the test on LXFL 529, with M19-MEL and in the test on XF498 was > 100 µM (inactive) each time.
As to `C/C(=N\NS(=O)(=O)c1ccc(C)cc1)C(CN1CCCCC1)C(c1ccccc1)c1c(O)c2ccccc2oc1=O` (stereo not given), the GI50 in the test with DLD-1, with HOP-18, in the test on LXFL 529, in the test with SNB-78 and in the test on XF498 was > 100 µM (inactive) in each case.
Take `CCCCC[C@@H]1CCCC2NC(CCCCCO[Si](c3ccccc3)(c3ccccc3)C(C)(C)C)CCC21` (stereo not given in full): the GI50 was 13.2 µM (inactive) with DLD-1; 13 µM (inactive) in the test with DMS-114; 16.8 µM (inactive) in the test on DMS-273; 17.3 µM (inactive) with M19-MEL; 11.5 µM (inactive) in the test with RXF 631; 15.1 µM (inactive) in the test with SNB-78.
As for `O=C1NC2OCC(O)C(O)C2O1` (stereo not given), the GI50 in the test with DLD-1, in the test on DMS-114, in the test with DMS-273, in the test on HOP-18, in the test on LXFL 529 and with M19-MEL was > 100 µM (inactive) in each case. Also, the GI50 with SNB-78 is > 100 µM (inactive).
Consider `O=C(O)CC(NC(=O)CP(=O)(O)O)C(=O)O` (stereo not given), for which the GI50 with DLD-1 was 66.4 µM (inactive); in the test on DMS-114, 741 µM (inactive); in the test with DMS-273, 119 µM (inactive); in the test on HOP-18, 3100 µM (inactive); with M19-MEL, 97.9 µM (inactive); with SNB-78 it was 973 µM (inactive). In the test on XF498, the GI50 was 596 µM (inactive).
For the compound `COCN/C(N)=N/C#N`, the GI50 was 42 µM (inactive) with DLD-1; 18.4 µM (inactive) in the test with DMS-114; 27.9 µM (inactive) with DMS-273; > 100 µM (inactive) with HOP-18; > 100 µM (inactive) in the test on LXFL 529; 41.7 µM (inactive) with M19-MEL. In addition, the GI50 with SNB-78 is > 100 µM (inactive).
Turning to `Nc1nc(SCC(=O)c2ccccc2)c2[nH]cnc2n1`, the GI50 in the test with DLD-1, with DMS-114, in the test with DMS-273, in the test on HOP-18, in the test on M19-MEL and in the test on XF498 was > 100 µM (inactive) throughout.
Regarding `CCSc1nc(N2CCCC2)s[s+]1.[O-][Cl+3]([O-])([O-])[O-]`, the GI50 with DLD-1 was 85.3 µM (inactive); with DMS-114 it was 17.6 µM (inactive); with DMS-273 it was 49.5 µM (inactive); with HOP-18 it was > 100 µM (inactive); with LXFL 529, 22.7 µM (inactive); with M19-MEL it was 2.3 µM (inactive). Besides, the GI50 with SNB-78 is 74.8 µM (inactive); with XF498, 31 µM (inactive).
For `C1=c2ccccc2=C2C(=C(c3ccccc3)C(c3ccccc3)=NN2c2ccccc2)S1`, the GI50 with DLD-1, in the test with DMS-114, in the test on DMS-273, with HOP-18, in the test on LXFL 529 and in the test on M19-MEL was > 100 µM (inactive) throughout. The GI50 with SNB-78 was > 100 µM (inactive).
Consider `CCCCc1c2c(nc3c1CCC/C3=C\c1ccccc1)C(=O)C(CN(C)C)CC2` (stereo not given), for which the GI50 was 17.1 µM (inactive) in the test on DLD-1; 17.7 µM (inactive) in the test on DMS-114; 20.2 µM (inactive) in the test on DMS-273; 23.6 µM (inactive) with HOP-18; 8.38 µM (inactive) with LXFL 529; 16.7 µM (inactive) with M19-MEL. Besides, the GI50 in the test with SNB-78 was 20.7 µM (inactive); in the test with XF498, 14.9 µM (inactive).
